From a melting point compilation (Tetko et al.; mined from patent text by program, amines drawn as free bases though some values may be those of a salt)

For `C#CCc1c(-c2ccccc2)nc(C)[nH]c1=O`, the melting point was 220 to 225 °C. `COc1ccc(OC)c2c1C=C(C(=O)O)CC2` showed a melting point of under 220 °C. In the case of `O=C(O)c1cccc(Oc2cccc(-c3nnc(N(Cc4ccc(C(F)(F)P(=O)(O)O)c(Cl)c4)c4ccc(Cl)c(Cl)c4)s3)c2)c1`, the melting point is reported as 178 to 180 °C. In the case of `O=[N+]([O-])c1cccnc1N1CCc2ccccc2CC1`, the melting point is reported as 129 to 136 °C. `Cc1ccc(NCC2CCN(C3CCCC3)CC2)c(C(=O)Nc2ccc(Cl)cn2)c1` gave a melting point of 173 to 175 °C. With `CCOC(=O)C(=O)N(c1ccccc1N)C(C)(C)C` the melting point was 64 to 65 °C. `COC(=O)c1ccc(CNc2cc(-c3cc4cc(F)c(F)cc4[nH]3)ccc2OC)cc1` showed a melting point of 168 to 170 °C. Work on `Cc1noc(NS(=O)(=O)c2ccccc2-c2ccc(-c3ncco3)cc2CC#N)c1C` yielded a melting point of 103 to 110 °C. Work on `CCN1CC2OC(c3ccccc3)(C1)c1ccccc12` (centres undefined) yielded a melting point of 132 to 134 °C. Work on `CS(=O)(=O)NC(=O)N[C@H]1CCN(c2ccc3c(NC(=O)CC4CCCCC4)c(Cl)ccc3n2)C1` yielded a melting point of 303 to 307 °C. With `CCCCCN(CCCCC)C(=O)C(CCC(=O)OC)CS(=O)(=O)c1ccc(Cl)c(Cl)c1` (centres undefined) the melting point was 52 to 54 °C. In the case of `CNC(=O)c1ncn(C(OC)c2ccc(Cl)c(Cl)c2)c1C(=O)NC` (single isomer, unassigned; (+)), the melting point is reported as 112 to 114 °C. Compound `Cc1oc(-c2ccccc2)nc1COc1ccc(COc2cncc(CC#N)c2)cc1` has a melting point of 137 to 138 °C. Work on `CCCCc1oc2ccccc2c1C=NOCCCOc1ccc(C(=O)O)cc1-c1ccc(C(F)(F)F)cc1` yielded a melting point of 140 °C. Work on `Cc1c(C2=NC(C)(C)CO2)cccc1[N+](=O)[O-]` yielded a melting point of 60 to 61 °C. For `N#CCCNC(=O)c1cccc(-c2cccc(Oc3cccc(Cl)c3)n2)c1`, the melting point was 139 to 140 °C. Work on `CC(=O)SC(CC(=O)c1ccc(Oc2ccc(C(C)C)cc2)cc1)C(=O)O` (centres undefined) yielded a melting point of 110 to 112 °C. Work on `OCc1n[nH]c(-c2ccc(CN3CCCCCC3)s2)n1` yielded a melting point of 159 to 161 °C. With `Nc1nc(Nc2ccccc2)sc1C=O` the melting point was 212 to 213 °C. `COc1ccc(-c2nc(C)c(C(N)=O)s2)cc1OC` showed a melting point of 218 to 220 °C. `COC(=O)Nc1ccccc1C(=O)Nc1nnn[nH]1` showed a melting point of 236 to 237 °C. For `O=S(=O)(Oc1ccc(S(=O)(=O)c2ccc(OS(=O)(=O)c3ccccc3)cc2)cc1)c1ccccc1`, the melting point was 133 to 134 °C. Compound `CC(=O)c1ccc(N2CCN(c3c(C)c(C)c4c(c3C)CC(C)(C)O4)CC2)cc1` has a melting point of 192 to 196 °C. `O=C(Nc1ccccc1Sc1c(Cl)cncc1Cl)N[C@@H](Cc1ccc(NC(=O)c2c(Cl)cncc2Cl)cc1)C(=O)O` gave a melting point of 211 °C. Compound `Cc1ccnc(N2CCN(CCc3c(C)n4c5c(cc(Br)cc35)CCC4)CC2)c1` has a melting point of 200 °C. With `O=c1ccn(CCO)c(Cc2ccccc2)c1O` the melting point was 228 to 230 °C. `O=C(Nc1ccccc1)Nc1cccnc1Cl` showed a melting point of 178 to 180 °C. In the case of `COc1c2c(cc3ccccc13)CCC(C(=O)O)C2` (centres undefined), the melting point is reported as 192 °C. With `CCn1c(=O)c2ccc(C(=O)O)cc2n(Cc2ccc(Cl)cc2Cl)c1=O` the melting point was 238 to 240 °C. Work on `N#Cc1ccc(NC(=N)Nc2ncccc2OCc2ccccc2)cc1` yielded a melting point of 173 to 175 °C. `c1ccc(COc2ccc(-c3nc(COc4ccc(CCCCn5ccnc5)cc4)co3)cc2)cc1` gave a melting point of 118 to 120 °C. `O=C(Nc1ccccc1)C(Br)(Br)Br` gave a melting point of 97 to 98 °C. With `C=COc1ccc(C(=O)c2ccccc2)cc1` the melting point was 58 °C. Compound `CCOC(=O)C1CN(C(=O)OCc2ccccc2)CC1=O` (centres undefined) has a melting point of 56.6 to 59.7 °C. Work on `O=C(O)CCCc1ccc(-c2ccccc2F)cc1` yielded a melting point of 65 to 66 °C. Work on `CSc1cc(C)nc(SC)c1NC(=O)CCCCSc1nc2cccc(C(F)(F)F)c2o1` yielded a melting point of 179 to 180 °C. With `O=c1cc(-c2ccncn2)nc2n1Cc1ccccc1N2` the melting point was 290 to 292 °C. Work on `CC(C)c1cc2c(=O)n3cc(C#N)ccc3nc2s1` yielded a melting point of 225 to 226 °C. Work on `COc1ccc(-c2cc(F)cc3c2OC(CN)C3)c(OC)c1` (centres undefined) yielded a melting point of 141 to 143 °C.
